Test results published in patent US12478619B2, “Method of treatment with milsaperidone” (Vanda Pharmaceuticals Inc., priority 2023, dated 2025).

Experiments:
[1] = human, in vivo
Procedure: A study is performed to evaluate the efficacy and safety of iloperidone compared with placebo and active control (ziprasidone) in subjects with acute schizophrenia (“Study 3101”). Patients are randomized to receive one of iloperidone at a dose of 24 mg/day given in a divided dose as 12 mg twice daily (bid), active comparator ziprasidone, or placebo. […] Uric acid results are converted to SI units using the conversion 1 mg/dL=59.5 μmol/L.
Results are provided in Table 7 below, including an increase of 28.0 μmol/L for iloperidone compared to a decrease of 4.2 μmol/L in placebo groups.
Patient genotypes are obtained via a commercial 500 k SNP Gene Chip Human Mapping Array. To test the hypothesis of altered urate serum levels in association with variants in SLC2A9, Linear models for SLC2A9 variants are performed on urate at baseline levels (corrected for PCs, age, sex) followed by samples collected at end of study (EOS).

[2] = Study 3201: serum urate in patients with acute manic episodes associated with bipolar I disorder, iloperidone vs placebo, 4 weeks; assay type: in vivo, human; conditions: for Serum urate LS Mean Change (SE) from baseline: iloperidone 24 mg/day (12 mg bid) oral, ANCOVA
Procedure: A multi-center, randomized, double-blind, placebo-controlled study (“Study 3201”) is performed to evaluate the safety and efficacy of iloperidone for four (4) weeks in the treatment of patients with acute manic episodes associated with bipolar I disorder. Patients in the study are randomized to orally receive either iloperidone at a dose of 24 mg/day given in a divided dose as 12 mg twice daily (bid), or matched placebo.
These increases are illustrated in FIG. 3 using solid data points.
To test the hypothesis of altered urate serum levels in association with variants in the SLC2A9 gene, whole genome sequencing is conducted from blood samples, genotype status is obtained through standard data analysis, and linear models for SLC2A9 variants are performed on urate concentration in samples collected at baseline (corrected for PCs, age, sex) and samples collected at the end of the study (EOS).

With `O=C1Cc2cc(CCN3CCN(c4nsc5ccccc45)CC3)c(Cl)cc2N1` [ziprasidone] the “Serum urate LS mean change from baseline to endpoint, ziprasidone treatment arm” value [1] was 13.1 µmol/L.

For `COc1cc(C(C)=O)ccc1OCCCN1CCC(c2noc3cc(F)ccc23)CC1` [Iloperidone, 1-[4-[3-[4-(6-flouro-1,2-benzisoxazol-3-yl)-1-piperidinyl]propoxy]-3-methoxyphenyl]ethanone], the “Increase of serum urate levels” value ([2]; 24 mg/day given as 12 mg bid, value in mg/dL) was ~0.457 mg/dL, the “Serum urate LS Mean Difference (95% CI), iloperidone vs placebo” value (shortened to “Serum urate LS Mean Difference (95% CI)”) ([2]; Day 7, 24 mg/day) was 1.3 (−9.29, 11.88) μmol/L and the “Serum urate LS Mean Change (SE) from baseline” value (from here on “Serum urate LS Mean Change (SE)”) ([2]; Day 7) was −2.7 (−4.07), 199 μmol/L. For the same molecule, the “Serum urate LS Mean Difference (95% CI)” value ([2]; Day 14, 24 mg/day) was 15.3 (4.50, 26.15) μmol/L, the “Serum urate LS Mean Change (SE)” value ([2]; Day 14) was 12.6 (−4.28), 173 μmol/L and the “Serum urate LS Mean Difference (95% CI)” value ([2]; Day 21, 24 mg/day) was 21.0 (8.91, 33.18) μmol/L. The “Serum urate LS Mean Change (SE)” value ([2]; Day 21) was 19.1 (−5.24), 157 μmol/L, the “Serum urate LS Mean Change (SE)” value ([2]; Day 28 (endpoint)) was 27.2 (−4.93), 142 μmol/L and the “Serum urate LS Mean Change (SE)” value ([2]; Day 28 (endpoint), listed as FANAPT® iloperidone) was “approximately 27.2 μmol/L”. The “Serum urate LS Mean Change (SE)” value ([2]; Day 28 (endpoint), listed as iloperidone) was 27.2 µmol/L, the “Increase in serum urate from baseline compared to placebo” value ([2]; Day 28, 24 mg/day) was 4 fold and the “Serum urate LS Mean Difference (95% CI)” value ([2]; Day 28, 24 mg/day) was 27.1 (14.94, 39.20) μmol/L. The “Change in serum urate from baseline (mean, observed cases)” value ([2]; Day 28, 24 mg/day, FIG. 3) was 33.4 µmol/L, the “LS Mean Change (SE) in Serum Urate” value ([2]; Day 28, genotype AA) was 25.74 (6.53), 73 μmol/L and the “Serum urate LS Mean Difference (95% CI)” value ([2]; Day 28, genotype AA) was 31.91 (14.82, 49) μmol/L. The “LS Mean Change (SE) in Serum Urate” value ([2]; Day 28, genotype AA, sex F) was 25.48 (9.16), 34 μmol/L, the “Serum urate LS Mean Difference (95% CI)” value ([2]; Day 28, genotype AA, sex F) was 27.85 (2.93, 52.76) μmol/L and the “LS Mean Change (SE) in Serum Urate” value ([2]; Day 28, genotype AA, sex M) was 28.89 (8.7), 39 μmol/L. The “Serum urate LS Mean Difference (95% CI)” value ([2]; Day 28, genotype AA, sex M) was 35.52 (12.82, 58.22) μmol/L, the “LS Mean Change (SE) in Serum Urate” value ([2]; Day 28, genotype AG) was 24.62 (7.61), 51 μmol/L and the “Serum urate LS Mean Difference (95% CI)” value ([2]; Day 28, genotype AG) was 14.84 (−4.18, 33.86) μmol/L. For the same molecule, the “LS Mean Change (SE) in Serum Urate” value ([2]; Day 28, genotype AG, sex F) was 0.06 (10.14), 27 μmol/L, the “Serum urate LS Mean Difference (95% CI)” value ([2]; Day 28, genotype AG, sex F) was −7.9 (−34.82, 19.03) μmol/L and the “LS Mean Change (SE) in Serum Urate” value ([2]; Day 28, genotype AG, sex M) was 53.41 (10.84), 24 μmol/L. For the same molecule, the “Serum urate LS Mean Difference (95% CI)” value ([2]; Day 28, genotype AG, sex M) was 40.79 (14.61, 66.96) μmol/L, the “LS Mean Change (SE) in Serum Urate” value ([2]; Day 28, genotype GG) was 40.09 (12.36), 18 μmol/L and the “Serum urate LS Mean Difference (95% CI)” value ([2]; Day 28, genotype GG) was 56.95 (18.91, 94.99) μmol/L. The “LS Mean Change (SE) in Serum Urate” value ([2]; Day 28, genotype GG, sex F) was −0.19 (19.49), 7 μmol/L, the “Serum urate LS Mean Difference (95% CI)” value ([2]; Day 28, genotype GG, sex F) was 3.08 (−50.97, 57.13) μmol/L and the “LS Mean Change (SE) in Serum Urate” value ([2]; Day 28, genotype GG, sex M) was 65.61 (15.42), 11 μmol/L. The “Serum urate LS Mean Difference (95% CI)” value ([2]; Day 28, genotype GG, sex M) was 102.96 (48.93, 156.99) μmol/L, the “Mean Change (SE) from Baseline in Serum Urate, Observed Cases” value (shortened to “Mean Change (SE) … Observed Cases”) ([2]; Day 28, rs7442295 genotype AA, 24 mg/day) was 30.5 (50.99), 73 μmol/L and the “Mean Change (SE) … Observed Cases” value ([2]; Day 28, rs7442295 genotype AG, 24 mg/day) was 31.9 (59.39), 51 μmol/L. The “Mean Change (SE) … Observed Cases” value ([2]; Day 28, rs7442295 genotype GG, 24 mg/day) was 49.1 (60.56), 18 μmol/L, the “LS Mean Change (SE) in Serum Urate” value ([2]; EOS (last observation carried forward), genotype AA, sex F) was 14.93 (8.59), 41 μmol/L and the “LS Mean Change (SE) in Serum Urate” value ([2]; EOS (last observation carried forward), genotype AA, sex M) was 20.63 (7.29), 60 μmol/L. The “LS Mean Change (SE) in Serum Urate” value ([2]; EOS (last observation carried forward), genotype AG, sex F) was −2.27 (8.75), 39 μmol/L, the “LS Mean Change (SE) in Serum Urate” value ([2]; EOS (last observation carried forward), genotype AG, sex M) was 32.96 (8.74), 41 μmol/L and the “LS Mean Change (SE) in Serum Urate” value ([2]; EOS (last observation carried forward), genotype GG, sex F) was −6.03 (20.3), 7 μmol/L. The “LS Mean Change (SE) in Serum Urate” value ([2]; EOS (last observation carried forward), genotype GG, sex M) was 67.03 (15.38), 12 μmol/L, the “Percentage of patients with serum urate above ULN” value (shortened to “Percentage of patients”) ([2]; EOS, Female (ULN 394 μmol/l), rs7442295 AA) was 15.0% and the “Percentage of patients” value ([2]; EOS, Female (ULN 394 μmol/l), rs7442295 AG) was 8.1%. For the same molecule, the “Percentage of patients” value ([2]; EOS, Female (ULN 394 μmol/l), rs7442295 GG) was 0.0%, the “Percentage of patients” value ([2]; EOS, Male (ULN 453 μmol/l), rs7442295 AA) was 12.3% and the “Percentage of patients” value ([2]; EOS, Male (ULN 453 μmol/l), rs7442295 AG) was 13.5%. The “Percentage of patients” value ([2]; EOS, Male (ULN 453 μmol/l), rs7442295 GG) was 33.3%, the “Percentage of patients” value ([2]; EOS, Male (ULN 453 μmol/l), rs7442295 GG, listed as iloperidone) was “about 33.3%” and the “LS Mean Change (SE) in Serum Urate” value ([2]; EOS, genotype AA) was 16.73 (5.66), 101 μmol/L. The “Serum urate LS Mean Difference (95% CI)” value ([2]; EOS, genotype AA) was 18.23 (3.19, 33.28) μmol/L, the “Serum urate LS Mean Difference (95% CI)” value ([2]; EOS, genotype AA, sex F) was 15.97 (−6.71, 38.64) μmol/L and the “Serum urate LS Mean Difference (95% CI)” value ([2]; EOS, genotype AA, sex M) was 18.99 (−0.89, 38.86) μmol/L. For the same molecule, the “LS Mean Change (SE) in Serum Urate” value ([2]; EOS, genotype AG) was 15.05 (6.29), 80 μmol/L, the “Serum urate LS Mean Difference (95% CI)” value ([2]; EOS, genotype AG) was 8.61 (−8.27, 25.48) μmol/L and the “Serum urate LS Mean Difference (95% CI)” value ([2]; EOS, genotype AG, sex F) was −1.4 (−25.85, 23.06) μmol/L. For the same molecule, the “Serum urate LS Mean Difference (95% CI)” value ([2]; EOS, genotype AG, sex M) was 19.58 (−2.91, 42.08) μmol/L, the “LS Mean Change (SE) in Serum Urate” value ([2]; EOS, genotype GG) was 40.4 (12.41), 19 μmol/L and the “Serum urate LS Mean Difference (95% CI)” value ([2]; EOS, genotype GG) was 55.4 (18.68, 92.13) μmol/L. The “Serum urate LS Mean Difference (95% CI)” value ([2]; EOS, genotype GG, sex F) was 4.54 (−50.43, 59.52) μmol/L, the “Serum urate LS Mean Difference (95% CI)” value ([2]; EOS, genotype GG, sex M) was 88.45 (38.7, 138.21) μmol/L and the “Increases in serum urate levels in iloperidone-treated patients homozygous for rs7442295 (G)” value ([2]; GG genotype compared with other iloperidone-treated patients) was “nearly twice as large”. The “Change in SUC relative to baseline at EOS, rs7442295-G/G vs A/G or A/A” value ([2]; iloperidone-treated patients, FIG. 9, panova<0.0001) was “significantly greater change from baseline” and the “Increase in percentage of male rs7442295-G/G individuals with high urate levels, baseline to end of study” value ([2]; male, GG, from about 8.3% at baseline) was “approximately 4 fold”.
